# Assay results from US6013642A, “Use of estrone derivatives as steroid sulphatase inhibitors” (priority 1994, dated 2000).
# Assays:
# [1] = system: mouse contact sensitisation model; assay: Contact sensitisation (oxazalone, ear swelling) in mice; assay type: in vivo
# Description: 1. Contact Sensitisation (CS)
# On day 0, mice were painted on their shaved right flank with 50 μl 2.5% oxazalone or vehicle (acetone 4:1 olive oil). On day 5 animals were challenged on their dorsal right ear surface with 25 μl of either 0.75% or 0.25% oxazalone. Prior to ear challenge, and 24, 48 and 72 hour post challenge ear thickness was measured using an engineer's micrometers. Ear swelling is determined as the difference in thickness prior and post challenge. The data are expressed as percentage change from the vehicle treated groups given sensitisation and challenge.
# DHEA, DHEAS were administered at various times, generally at time of sensitisation (day 0) and time of challenge (day 3 or 4-DTH model, day 4 or 5-(CS-model) in order to obtain an augmentation of the immune response above non-steroid treated animals.
# Different doses of the inhibitors have been used, and compared to the effect of dexamethasone as potential immunosuppressive/anti-inflammatory agents.
# carrageenan pleurisy = assay: Carrageenan pleurisy; assay type: in vivo, Wistar Rats; conditions: FIG. 14; CT2251 10 mg/kg p.o. at -24 h and -1 h; six hours
# Description: Wistar Rats were anaesthetised and given intra-pleural injections of 0.5% carrageenan in saline at time 0. Six hours later the animals were killed and pleural cavity lavaged with 1 ml. citrated saline. Volume of fluid exudate and exudate cell concentration were measured. Animals were randomised to 5 treatment groups (n=6).
# [2] = target: T1, human placental microsomal DHEAS sulphatase (Homo sapiens, UniProt P08842); assay: Human placental microsomal steroid sulphatase assay; assay type: biochemical
# T1 construct: Human placental microsomes prepared as described in; from tissue; host or cells: human placenta, microsomes (prepared as Santner et al 1984)
# T1 sequence (P08842 22-583): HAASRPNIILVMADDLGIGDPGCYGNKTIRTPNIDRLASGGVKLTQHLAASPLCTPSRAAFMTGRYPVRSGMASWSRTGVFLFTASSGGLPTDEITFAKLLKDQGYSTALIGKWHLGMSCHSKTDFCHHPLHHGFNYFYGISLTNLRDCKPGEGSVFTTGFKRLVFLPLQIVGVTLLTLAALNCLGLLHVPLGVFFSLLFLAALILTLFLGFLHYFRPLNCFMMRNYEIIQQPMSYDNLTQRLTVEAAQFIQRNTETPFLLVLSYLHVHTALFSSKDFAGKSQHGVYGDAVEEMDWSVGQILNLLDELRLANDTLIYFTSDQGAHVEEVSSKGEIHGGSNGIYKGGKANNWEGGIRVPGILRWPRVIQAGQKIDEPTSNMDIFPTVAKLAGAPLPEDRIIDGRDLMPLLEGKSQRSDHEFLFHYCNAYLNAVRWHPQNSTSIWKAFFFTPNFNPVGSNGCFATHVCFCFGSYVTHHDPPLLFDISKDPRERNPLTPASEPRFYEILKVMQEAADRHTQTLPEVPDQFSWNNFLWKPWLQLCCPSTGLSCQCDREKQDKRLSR
# Description: a) Human placental microsomal steroid sulphatase
# ENZYME: Human placental microsomes prepared as described in (Santner, S. J., et al (1984) J. Clin. Endocrinol. Metab. 59 29).
# ASSAY: All assays were carried out in (at least) duplicate. The reaction mixture consisted of either PBS+250 mM sucrose (placental microsomes), containing 1 μmol/1 DHEAS [concentration chosen because approx. […]] with 0.05% (v/v) [^3 H] substrate and 0.05% (v/v) [^14 C] DHEA) in 0.5% (v/v DMSO. The reaction was initiated by addition of appropriately diluted) such that 10% substrate conversion occurred during the assay) enzyme and incubated for 30 min at 30° C. Reactions were stopped by addition of 1000 μl toluene to the reaction mixture, vortexed (2*40 sec on max setting of multitube vortexer), then allow to settle for 5 min. 500 μl top (solvent) layer removed to scintillation vial. add 10 ml scintillation fluid (Ultima Gold XR) then counted for radioactivity on a scintillation counter. As controls, enzyme was excluded from some reaction mixtures and 50% solvent and aqueous layers removed and counted for radioactivity in order to determine background (in solvent layer) and total (in aqueous layer) [^3 H]. [^14 C] DHEA is included to enable back correction to allow for product (DHEA) recovery (normally >98%). […]
# [3] = system: mouse delayed type hypersensitivity model; assay: Delayed type hypersensitivity (SRBC, footpad swelling) in the mouse; assay type: in vivo; conditions: FIG. 11, 24 h post challenge
# Description: 2. Delayed Type Hypersensitivity (DTH)
# On day 0, animals were injected intravenously with 10^6 washed SRBC in 0.1 ml saline. Four days later animals were challenged in the right hind footpad with 10^6 washed SRBC in 50 μl saline. Footpad thickness is measured prior to challenge, 24, 48 and 72 hours post challenge using calipers. Footpad swelling is determined as the difference in thickness prior and post challenge. The data are expressed as percentage change from the vehicle treated groups given sensitisation and challenge.
# Animals were randomised into 10 groups (n=7-8) and steroids given on day 0 and 4.
# Steroids were given on day 0 and 3 subcutaneously. Response at 24 h post challenge. Results given as mean±sem. $, *p<0.05 ANOVA.
# [4] = system: mouse contact sensitisation model; assay: Cellular infiltrate (anti-CD3 / anti-Mac-1 positive cells) in challenged ears, contact sensitisation; assay type: in vivo, mice; conditions: Experiment 7, FIG. 10, 24 h following challenge
# Description: Animals were randomised into 7 groups (n=7-10) and steroids given on days 0 and 5. At 24 h following challenge, ears were removed, fixed and stained with either an anti-CD3 (T-cells) or anti-Mac-1 (monocytes/macrophages) antibody and the number of positive cells counted in 10 random fields.
# [5] = system: collagen II-induced arthritis; assay: Collagen II-induced arthritis in mice; assay type: in vivo, Male DBA/1 mice; conditions: FIG. 13; CT2251 10 mg/kg on day -1 and weekly
# Description: Male DBA/1 mice were sensitised with type II collagen into the base of the tail in FCA in day 0. These animals received a further injection of CII in FICA (Freunds Incomplete Adjuvant) on day 18 and incidence and severity of arthritis assessed from day 25. Mice were randomised into 3 groups (n=10).
smiles,measurement,setting,value
"C[C@]12CC[C@@H]3c4ccc(OS(N)(=O)=O)cc4CC[C@H]3[C@@H]1CCC2=O [CT 2251, Estrone 3-0-sulphamate]","normal ear swelling response, inhibitor on its own","[1]; Experiment 4, FIG. 7, CT2251 0.1 and 10 mg/kg s.c. days 0 and 4",significantly inhibited the normal ear swelling response
same,effect on DHEA-augmented ear swelling,"[1]; Experiment 4, FIG. 7, CT2251 0.1 and 10 mg/kg with DHEA 5 mg/kg s.c. days 0 and 4",not that seen with DHEA
same,effect on DHEAS-augmented ear swelling,"[1]; Experiment 4, FIG. 7, CT2251 0.1 and 10 mg/kg with DHEAS 5 mg/kg s.c. days 0 and 4",reversed the augmentation seen with DHEAS
same,degree of ear swelling,"[1]; Experiment 5, FIG. 8, CT2251 0.001-0.3 mg/kg s.c. days 0 and 4, 24 h",inhibited by CT2251 treatment in a dose-dependent manner
same,inhibitory effect on ear swelling in presence of increasing substrate,"[1]; Experiment 6, FIG. 9, CT2251 0.1 mg/kg with DHEAS 5, 15, 50 mg/kg days 0 and 4, 24 h",can be reverse by increasing doses of DHEAS
same,minimal effective dose,"[1]; Mus musculus, sc, Experiment 5, FIG. 8, s.c. days 0 and 4, 24 h, read-out: effective dose for inhibition of ear swelling",≥ 0.1 mg/kg
same,reduction of cell infiltrate,carrageenan pleurisy,28%
same,reduction of exudate volume,carrageenan pleurisy,43%
same,IC50,[2],5 nM
same,"foot swelling response, inhibitor on its own",[3]; CT2251 0.1 and 10 mg/kg s.c.,can markedly reduce the foot swelling response
same,effect on DHEAS-mediated augmentation of foot swelling,[3]; CT2251 0.1 and 10 mg/kg with DHEAS 5 mg/kg s.c.,can effectively reverse the DHEAS-mediated augmentation
same,effect on DHEAS-augmented cell infiltrate,[4]; CT2251 10 mg/kg with DHEAS 5 mg/kg,effectively reversed
same,"number of infiltrating CD3 positive cells, inhibitor on its own",[4]; CT2251 10 mg/kg,able to further reduce the number of infiltrating CD3 positive cells
same,development of arthritis (incidence and severity),[5],prevented the development of any disease
